Assay results from PMC10412597, “Small molecule branched-chain ketoacid dehydrogenase kinase (BDK) inhibitors with opposing effects on BDK protein levels” (Nature Communications, 2023).

How the values were obtained:
Design in all cases: Invitrogen kinase panel, per cent inhibition of kinase activity
Conditions in all cases: 10 µM, inhibitor
[1] = biological target: CAMK1 (Homo sapiens, UniProt Q14012)
Method: (§1) To discover a potent and selective BDK inhibitor, a subset of the Pfizer compound collection was screened. […] Off target activity was assessed in both CEREP and kinase panels (Supplementary Tables 2, 3).

[2] = biological target: T1, CHEK1 (Homo sapiens, UniProt O14757)
T1 sequence (O14757 1-476): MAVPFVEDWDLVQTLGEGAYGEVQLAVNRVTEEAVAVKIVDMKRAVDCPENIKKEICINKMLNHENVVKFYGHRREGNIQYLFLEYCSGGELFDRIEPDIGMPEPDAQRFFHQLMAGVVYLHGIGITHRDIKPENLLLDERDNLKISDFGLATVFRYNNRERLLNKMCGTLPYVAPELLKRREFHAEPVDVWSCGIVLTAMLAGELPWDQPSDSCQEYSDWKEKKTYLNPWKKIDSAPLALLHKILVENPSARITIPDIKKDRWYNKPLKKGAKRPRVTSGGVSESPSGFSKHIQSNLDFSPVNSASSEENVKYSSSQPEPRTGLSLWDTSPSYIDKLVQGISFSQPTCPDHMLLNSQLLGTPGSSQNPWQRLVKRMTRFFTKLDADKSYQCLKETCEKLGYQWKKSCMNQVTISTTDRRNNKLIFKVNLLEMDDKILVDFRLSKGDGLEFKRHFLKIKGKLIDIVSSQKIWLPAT
Method: as §1

[3] = biological target: T2, CKI-delta (Homo sapiens, UniProt P48730)
T2 construct: gene CSNK1D
How it was run: (§2)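 Compounds from a BDK inhibitor screen were counter-screened for off-target activity in a kinase panel.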

[4] = biological target: CSNK2A2 (Homo sapiens, UniProt P19784)
Method: as §1

[5] = biological target: T3, Eukaryotic elongation factor-2 kinase (Homo sapiens, UniProt O00418)
T3 construct: gene EEF2K
How it was run: as §2

[6] = biological target: T4, HER4 (Homo sapiens, UniProt Q15303)
T4 construct: gene ERBB4
How it was run: as §2

[7] = biological target: MAPK13 (Homo sapiens, UniProt O15264)
How it was run: as §2

[8] = biological target: MAPK14 (Homo sapiens, UniProt Q16539)
Method: as §1

[9] = biological target: MAPKAPK5 (Homo sapiens, UniProt Q8IW41)
How it was run: as §2

[10] = biological target: MKNK1 (Homo sapiens, UniProt Q9BUB5)
How it was run: as §2

[11] = biological target: T5, MST4 (Homo sapiens, UniProt Q9P289)
T5 construct: gene STK26
Method: as §1

[12] = biological target: MYLK2 (Homo sapiens, UniProt Q9H1R3)
Method: as §1

[13] = biological target: T6, Misshapen-like Kinase 1 (Homo sapiens, UniProt Q8N4C8)
T6 construct: gene MINK1
How it was run: as §2

[14] = biological target: PI4KB (Homo sapiens, UniProt Q9UBF8)
How it was run: as §2

[15] = biological target: T7, PRKCB2 (Homo sapiens, UniProt P05771)
T7 construct: gene PRKCB; isoform beta2
Method: as §1

[16] = biological target: PRKDC (Homo sapiens, UniProt P78527)
How it was run: as §2

[17] = biological target: T8, Phosphorylase B kinase gamma catalytic chain skeletal muscle isoform (Homo sapiens, UniProt Q16816)
T8 construct: gene PHKG1
Method: as §1

[18] = biological target: T9, STK3 (Homo sapiens, UniProt Q13188)
T9 sequence (Q13188 1-491): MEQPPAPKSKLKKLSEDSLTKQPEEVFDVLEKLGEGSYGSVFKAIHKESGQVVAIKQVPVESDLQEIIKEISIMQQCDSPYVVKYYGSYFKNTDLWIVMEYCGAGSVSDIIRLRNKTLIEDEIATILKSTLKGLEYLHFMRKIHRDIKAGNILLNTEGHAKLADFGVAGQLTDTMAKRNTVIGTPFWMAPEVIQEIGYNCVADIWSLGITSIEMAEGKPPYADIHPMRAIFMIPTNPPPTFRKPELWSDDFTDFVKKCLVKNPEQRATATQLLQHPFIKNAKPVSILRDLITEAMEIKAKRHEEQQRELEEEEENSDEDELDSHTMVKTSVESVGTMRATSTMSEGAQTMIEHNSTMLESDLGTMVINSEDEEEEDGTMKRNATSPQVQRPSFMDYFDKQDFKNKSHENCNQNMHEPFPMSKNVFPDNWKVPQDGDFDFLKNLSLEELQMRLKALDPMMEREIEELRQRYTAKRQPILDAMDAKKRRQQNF
Method: as §1

[19] = biological target: mTOR (Homo sapiens, UniProt P42345)
How it was run: as §2

Chain of MAPK14 (Q16539 whole entry): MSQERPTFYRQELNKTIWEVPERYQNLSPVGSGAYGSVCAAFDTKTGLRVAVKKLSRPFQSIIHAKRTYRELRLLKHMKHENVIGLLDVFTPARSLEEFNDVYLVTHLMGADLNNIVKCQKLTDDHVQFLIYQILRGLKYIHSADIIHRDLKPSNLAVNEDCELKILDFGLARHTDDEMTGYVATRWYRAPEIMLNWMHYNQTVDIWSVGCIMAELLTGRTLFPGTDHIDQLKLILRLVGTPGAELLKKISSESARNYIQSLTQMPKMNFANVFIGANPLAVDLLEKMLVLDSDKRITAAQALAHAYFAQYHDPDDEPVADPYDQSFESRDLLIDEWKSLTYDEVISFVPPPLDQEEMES
T5 sequence (Q9P289 whole entry): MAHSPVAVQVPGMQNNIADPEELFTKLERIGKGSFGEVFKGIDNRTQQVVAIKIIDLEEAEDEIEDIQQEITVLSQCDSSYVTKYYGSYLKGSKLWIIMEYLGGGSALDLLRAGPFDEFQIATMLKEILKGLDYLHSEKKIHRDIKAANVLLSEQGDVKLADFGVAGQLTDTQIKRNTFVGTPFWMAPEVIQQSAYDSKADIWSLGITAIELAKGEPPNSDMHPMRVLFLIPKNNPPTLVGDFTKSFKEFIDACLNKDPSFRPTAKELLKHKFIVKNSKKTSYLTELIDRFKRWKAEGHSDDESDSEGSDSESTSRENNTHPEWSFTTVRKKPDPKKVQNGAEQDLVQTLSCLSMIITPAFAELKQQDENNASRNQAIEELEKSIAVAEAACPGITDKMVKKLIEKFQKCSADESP
T7 sequence (P05771 whole entry, canonical isoform): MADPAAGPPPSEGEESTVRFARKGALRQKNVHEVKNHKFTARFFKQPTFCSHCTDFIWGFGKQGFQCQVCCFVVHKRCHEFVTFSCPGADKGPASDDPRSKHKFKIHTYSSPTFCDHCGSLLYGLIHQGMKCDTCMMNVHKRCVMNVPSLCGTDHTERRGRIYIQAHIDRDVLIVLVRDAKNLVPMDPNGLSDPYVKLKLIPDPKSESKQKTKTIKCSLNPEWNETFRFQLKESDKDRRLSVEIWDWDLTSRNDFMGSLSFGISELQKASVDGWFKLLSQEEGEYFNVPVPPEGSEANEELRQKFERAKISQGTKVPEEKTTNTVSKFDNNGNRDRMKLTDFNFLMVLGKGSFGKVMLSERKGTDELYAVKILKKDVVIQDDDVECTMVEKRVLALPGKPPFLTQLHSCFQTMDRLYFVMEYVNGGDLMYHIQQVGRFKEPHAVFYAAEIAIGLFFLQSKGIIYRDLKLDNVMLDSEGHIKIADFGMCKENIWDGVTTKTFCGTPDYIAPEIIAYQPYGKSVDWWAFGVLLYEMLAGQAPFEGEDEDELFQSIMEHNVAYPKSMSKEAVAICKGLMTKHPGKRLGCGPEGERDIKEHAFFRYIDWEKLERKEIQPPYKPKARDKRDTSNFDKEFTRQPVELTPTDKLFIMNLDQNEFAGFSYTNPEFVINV
Chain of CSNK2A2 (P19784 whole entry): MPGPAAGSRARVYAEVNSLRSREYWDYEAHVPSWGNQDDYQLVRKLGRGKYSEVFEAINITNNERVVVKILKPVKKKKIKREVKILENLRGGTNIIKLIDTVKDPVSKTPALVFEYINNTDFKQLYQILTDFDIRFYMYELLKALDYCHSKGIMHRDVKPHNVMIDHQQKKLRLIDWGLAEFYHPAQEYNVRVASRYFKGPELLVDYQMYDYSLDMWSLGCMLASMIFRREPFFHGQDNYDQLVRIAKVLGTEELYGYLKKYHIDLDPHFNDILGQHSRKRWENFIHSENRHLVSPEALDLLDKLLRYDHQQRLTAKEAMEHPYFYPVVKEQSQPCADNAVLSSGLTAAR
Chain of MYLK2 (Q9H1R3 whole entry): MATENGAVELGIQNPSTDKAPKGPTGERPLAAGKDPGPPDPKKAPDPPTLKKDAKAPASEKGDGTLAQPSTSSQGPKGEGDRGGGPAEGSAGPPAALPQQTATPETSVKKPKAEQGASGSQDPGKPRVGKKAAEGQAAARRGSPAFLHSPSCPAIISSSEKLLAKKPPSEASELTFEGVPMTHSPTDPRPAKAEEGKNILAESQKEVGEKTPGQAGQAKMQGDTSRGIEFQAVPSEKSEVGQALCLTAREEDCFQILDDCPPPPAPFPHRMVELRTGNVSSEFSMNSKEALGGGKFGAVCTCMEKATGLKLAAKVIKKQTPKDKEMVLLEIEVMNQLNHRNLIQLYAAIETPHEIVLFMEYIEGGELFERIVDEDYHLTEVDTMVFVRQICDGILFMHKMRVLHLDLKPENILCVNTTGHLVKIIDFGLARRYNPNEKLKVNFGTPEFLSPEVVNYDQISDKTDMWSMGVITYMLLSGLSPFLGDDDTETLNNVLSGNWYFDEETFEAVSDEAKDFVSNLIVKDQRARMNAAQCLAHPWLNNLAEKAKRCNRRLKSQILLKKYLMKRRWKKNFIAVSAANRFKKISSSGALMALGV
T6 sequence (Q8N4C8 whole entry): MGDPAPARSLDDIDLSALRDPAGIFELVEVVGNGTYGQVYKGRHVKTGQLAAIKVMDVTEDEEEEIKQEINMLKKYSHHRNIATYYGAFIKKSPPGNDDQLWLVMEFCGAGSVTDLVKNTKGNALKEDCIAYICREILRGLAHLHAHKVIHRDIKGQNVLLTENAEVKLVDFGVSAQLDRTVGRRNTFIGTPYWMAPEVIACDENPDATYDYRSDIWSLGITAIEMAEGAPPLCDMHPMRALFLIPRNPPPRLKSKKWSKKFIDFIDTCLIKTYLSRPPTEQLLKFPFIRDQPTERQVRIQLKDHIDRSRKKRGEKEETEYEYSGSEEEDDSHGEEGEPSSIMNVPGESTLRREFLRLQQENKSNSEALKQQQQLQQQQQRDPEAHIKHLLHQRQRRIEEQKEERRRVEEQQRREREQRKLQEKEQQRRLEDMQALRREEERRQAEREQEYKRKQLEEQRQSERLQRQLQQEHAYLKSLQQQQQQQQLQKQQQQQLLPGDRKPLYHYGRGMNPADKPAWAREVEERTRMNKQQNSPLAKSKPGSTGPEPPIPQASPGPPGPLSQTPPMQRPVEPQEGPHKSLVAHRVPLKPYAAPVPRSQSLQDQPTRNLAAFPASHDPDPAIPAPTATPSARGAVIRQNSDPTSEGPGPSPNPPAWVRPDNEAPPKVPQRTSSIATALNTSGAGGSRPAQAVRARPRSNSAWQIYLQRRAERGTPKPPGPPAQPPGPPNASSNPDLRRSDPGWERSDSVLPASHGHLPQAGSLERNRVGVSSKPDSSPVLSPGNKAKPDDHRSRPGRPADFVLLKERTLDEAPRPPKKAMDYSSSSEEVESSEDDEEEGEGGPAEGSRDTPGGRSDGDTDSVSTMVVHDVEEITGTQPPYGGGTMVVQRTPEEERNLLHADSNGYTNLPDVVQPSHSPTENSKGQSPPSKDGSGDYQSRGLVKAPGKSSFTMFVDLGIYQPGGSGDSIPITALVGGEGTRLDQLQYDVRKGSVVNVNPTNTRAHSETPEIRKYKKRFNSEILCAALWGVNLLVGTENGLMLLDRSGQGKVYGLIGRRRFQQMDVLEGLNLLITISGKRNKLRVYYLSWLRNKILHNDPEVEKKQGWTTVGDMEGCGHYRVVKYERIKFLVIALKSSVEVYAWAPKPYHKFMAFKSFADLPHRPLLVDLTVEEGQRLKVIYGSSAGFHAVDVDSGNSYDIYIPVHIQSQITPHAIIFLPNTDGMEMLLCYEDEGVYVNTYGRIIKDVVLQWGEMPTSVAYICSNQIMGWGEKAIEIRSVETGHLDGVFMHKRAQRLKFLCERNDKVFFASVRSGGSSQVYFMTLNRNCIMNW
Chain of MAPK13 (O15264 whole entry): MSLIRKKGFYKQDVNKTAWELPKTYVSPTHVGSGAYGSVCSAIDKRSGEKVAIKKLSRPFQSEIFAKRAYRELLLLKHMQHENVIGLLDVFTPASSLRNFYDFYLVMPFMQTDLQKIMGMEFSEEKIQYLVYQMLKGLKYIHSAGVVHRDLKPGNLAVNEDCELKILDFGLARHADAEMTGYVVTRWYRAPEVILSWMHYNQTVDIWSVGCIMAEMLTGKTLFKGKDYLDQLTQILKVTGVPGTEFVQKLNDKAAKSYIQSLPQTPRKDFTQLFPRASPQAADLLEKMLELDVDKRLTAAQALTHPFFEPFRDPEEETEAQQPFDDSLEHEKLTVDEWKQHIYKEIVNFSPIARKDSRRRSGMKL
T2 sequence (P48730 whole entry): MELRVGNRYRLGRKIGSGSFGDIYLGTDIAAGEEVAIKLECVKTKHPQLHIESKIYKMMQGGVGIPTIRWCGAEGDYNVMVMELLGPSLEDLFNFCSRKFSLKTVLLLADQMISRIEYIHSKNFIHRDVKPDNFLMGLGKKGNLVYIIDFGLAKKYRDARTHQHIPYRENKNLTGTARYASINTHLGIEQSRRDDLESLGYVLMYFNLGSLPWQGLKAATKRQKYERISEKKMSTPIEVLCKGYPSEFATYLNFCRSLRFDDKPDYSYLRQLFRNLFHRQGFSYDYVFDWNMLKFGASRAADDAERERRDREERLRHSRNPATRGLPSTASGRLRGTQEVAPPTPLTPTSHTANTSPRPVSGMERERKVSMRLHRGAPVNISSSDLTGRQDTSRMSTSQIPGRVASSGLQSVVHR
T8 sequence (Q16816 whole entry, canonical isoform): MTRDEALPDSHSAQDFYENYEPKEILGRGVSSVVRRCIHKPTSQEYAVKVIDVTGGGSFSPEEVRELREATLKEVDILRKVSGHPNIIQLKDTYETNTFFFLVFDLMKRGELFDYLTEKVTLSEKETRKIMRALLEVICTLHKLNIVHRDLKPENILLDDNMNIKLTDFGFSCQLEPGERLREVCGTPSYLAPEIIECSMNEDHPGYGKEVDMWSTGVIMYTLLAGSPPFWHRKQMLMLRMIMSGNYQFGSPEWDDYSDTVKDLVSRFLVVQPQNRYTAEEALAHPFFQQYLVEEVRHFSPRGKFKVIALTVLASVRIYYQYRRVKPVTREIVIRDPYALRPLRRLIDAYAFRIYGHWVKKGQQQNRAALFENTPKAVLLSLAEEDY

## O=C(O)c1sc2cc(F)sc2c1Cl [PF-07208254, 3-chloro-5-fluorothieno[3,2-b]thiophene-2-carboxylic acid]
[1]
  ATP = 100 uM % Inhibition PF-07208254: -7.9%
[2]
  ATP = 1 mM % Inhibition PF-07208254: 4.3%
  ATP = Km % Inhibition PF-07208254: 4.6%
[3]
  ATP = Km % Inhibition PF-07208254: 9.1%
[4]
  ATP = 1 mM % Inhibition PF-07208254: 7.3%
  ATP = Km % Inhibition PF-07208254: 24.5%
[5]
  ATP = Km % Inhibition PF-07208254: 2.3%
[6]
  ATP = Km % Inhibition PF-07208254: -11.4%
[7]
  ATP = Km % Inhibition PF-07208254: 3.6%
[8]
  ATP = 1 mM % Inhibition PF-07208254: 4.0%
  ATP = Km % Inhibition PF-07208254: 3.0%
[9]
  ATP = Km % Inhibition PF-07208254: 6.6%
[10]
  ATP = Km % Inhibition PF-07208254: 15.1%
[11]
  ATP = 1 mM % Inhibition PF-07208254: 3.7%
  ATP = Km % Inhibition PF-07208254: 16.7%
[12]
  ATP = 1 mM % Inhibition PF-07208254: -0.1%
  ATP = Km % Inhibition PF-07208254: -3.6%
[13]
  ATP = Km % Inhibition PF-07208254: -3.3%
[14]
  ATP = Km % Inhibition PF-07208254: 7.9%
[15]
  ATP = 1 mM % Inhibition PF-07208254: 1.9%
  ATP = Km % Inhibition PF-07208254: -1.7%
[16]
  ATP = Km % Inhibition PF-07208254: 8.3%
[17]
  ATP = Km % Inhibition PF-07208254: 1.8%
[18]
  ATP = 1 mM % Inhibition PF-07208254: -2.3%
  ATP = Km % Inhibition PF-07208254: 5.5%
[19]
  ATP = Km % Inhibition PF-07208254: 5.1%

## CCC1(COc2ccc(-c3csc(-c4ccccc4C(=O)O)n3)cn2)CC1 [PF-07247685, 2-(4-{6-[(1-ethylcyclopropyl)methoxy]pyridin-3-yl}-1,3-thiazol-2-yl)benzoic acid]
[1]
  ATP = 100 uM % Inhibition PF-07247685: -5.1%
[2]
  ATP = 1 mM % Inhibition PF-07247685: 4.5%
  ATP = Km % Inhibition PF-07247685: -3.1%
[3]
  ATP = Km % Inhibition PF-07247685: 6.0%
[4]
  ATP = 1 mM % Inhibition PF-07247685: 1.9%
  ATP = Km % Inhibition PF-07247685: 7.5%
[5]
  ATP = Km % Inhibition PF-07247685: -1.5%
[6]
  ATP = Km % Inhibition PF-07247685: 7.2%
[7]
  ATP = Km % Inhibition PF-07247685: -0.7%
[8]
  ATP = 1 mM % Inhibition PF-07247685: 7.1%
  ATP = Km % Inhibition PF-07247685: 3.5%
[9]
  ATP = Km % Inhibition PF-07247685: 2.3%
[10]
  ATP = Km % Inhibition PF-07247685: 0.5%
[11]
  ATP = 1 mM % Inhibition PF-07247685: -2.9%
  ATP = Km % Inhibition PF-07247685: 2.9%
[12]
  ATP = 1 mM % Inhibition PF-07247685: 1.7%
  ATP = Km % Inhibition PF-07247685: 1.4%
[13]
  ATP = Km % Inhibition PF-07247685: 21.9%
[14]
  ATP = Km % Inhibition PF-07247685: 7.1%
[15]
  ATP = 1 mM % Inhibition PF-07247685: 4.0%
  ATP = Km % Inhibition PF-07247685: 9.4%
[16]
  ATP = Km % Inhibition PF-07247685: 5.4%
[17]
  ATP = Km % Inhibition PF-07247685: 2.2%
[18]
  ATP = 1 mM % Inhibition PF-07247685: -7.6%
  ATP = Km % Inhibition PF-07247685: -1.8%
[19]
  ATP = Km % Inhibition PF-07247685: 0.4%
